Test results: patent publication US9944645B2, “Imidazotriazines and imidazopyrimidines as kinase inhibitors” (Incyte Holdings Corporation, priority 2006, dated 2018)

molecular target: c-Met kinase (h-Met; histidine-tagged c-Met catalytic domain fusion protein) (Homo sapiens (Human), UniProt P08581); test: In Vitro c-Met Kinase Enzyme Assays; format: biochemical; settings: phosphorylation of poly Glu-Tyr, 5 μM ATP, 25 minutes at 30° C.
Method in brief: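 His-tagged c-Met catalytic domain reacted 25 min at 30° C, within the linear initial-rate range. Phosphotyrosine detected by ELISA with peroxidase-labeled anti-phospho-tyrosine antibody and TMB, OD read at 450 nm (540 nm correction); IC50 from curve fit.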

Chain of c-Met kinase (h-Met; histidine-tagged c-Met catalytic domain fusion protein) (P08581 1078-1345): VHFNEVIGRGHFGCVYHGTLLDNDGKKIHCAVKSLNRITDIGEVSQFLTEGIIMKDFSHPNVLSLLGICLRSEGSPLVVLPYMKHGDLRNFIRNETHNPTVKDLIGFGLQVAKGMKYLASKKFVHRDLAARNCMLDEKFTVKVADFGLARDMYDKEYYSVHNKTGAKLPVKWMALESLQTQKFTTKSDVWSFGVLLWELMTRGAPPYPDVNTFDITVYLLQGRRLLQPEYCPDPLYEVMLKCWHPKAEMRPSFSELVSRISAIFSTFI

IC50, < 500 nM:
Cn1cc(-c2cnc3ncc(C4(c5ccc6ncccc6c5)CC4)n3c2)cn1 [Example 90, 6-{1-[6-(1-Methyl-1H-pyrazol-4-yl)imidazo[1,2-a]pyrimidin-3-yl]cyclopropyl}quinoline]
CN(C)C(=O)N1CCC(n2cc(-c3cnc4ncc(C5(c6ccc7ncccc7c6)CC5)n4c3)cn2)CC1 [Example 91, N,N-Dimethyl-4-{4-[3-(1-quinolin-6-ylcyclopropyl)imidazo[1,2-a]pyrimidin-6-yl]-1H-pyrazol-1-yl}piperidine-1-carboxamide]
OC1CCC(n2cc(-c3cnc4ncc(C5(c6ccc7ncccc7c6)CC5)n4c3)cn2)CC1 (stereo not shown) [Example 92, 4-{4-[3-(1-Quinolin-6-ylcyclopropyl)imidazo[1,2-a]pyrimidin-6-yl]-1H-pyrazol-1-yl}cyclohexanol]
N#CCn1cc(-c2cnc3ncc(C4(c5ccc6ncccc6c5)CC4)n3c2)cn1 [Example 93, {4-[3-(1-Quinolin-6-ylcyclopropyl)imidazo[1,2-a]pyrimidin-6-yl]-1H-pyrazol-1-yl}acetonitrile]
CNC(=O)c1ccc(-c2ccc(-c3cnc4ncc(C5(c6ccc7ncccc7c6)CC5)n4n3)cc2)cn1 [Example 94, N-Methyl-5-{4-[7-(1-quinolin-6-ylcyclopropyl)imidazo[1,2-b][1,2,4]triazin-2-yl]phenyl}pyridine-2-carboxamide]
c1cnc2ccc(C3(c4cnc5ncc(-c6ccc(-c7cncnc7)cc6)nn45)CC3)cc2c1 [Example 95, 6-{1-[2(4-Pyrimidin-5-yl-phenyl)imidazo[1,2-b][1,2,4]triazin-7-yl]cyclopropyl}quinoline]
CC(=O)N1CC=C(c2ccc(-c3cnc4ncc(C5(c6ccc7ncccc7c6)CC5)n4n3)cc2)CC1 [Example 96, 6-(1-{2-[4-(1-Acetyl-1,2,3,6-tetrahydropyridin-4-yl)phenyl]imidazo[1,2-b][1,2,4]triazin-7-yl}cyclopropyl)quinoline]
CS(=O)(=O)N1CC=C(c2ccc(-c3cnc4ncc(C5(c6ccc7ncccc7c6)CC5)n4n3)cc2)CC1 [Example 97, 6-[1-(2-{4-[1-(Methylsulfonyl)-1,2,3,6-tetrahydropyridin-4-yl]phenyl}imidazo[1,2-b][1,2,4]triazin-7-yl)cyclopropyl]quinoline]
CN(C)C(=O)c1ccc(-c2ccc(-c3cnc4ncc(C5(c6ccc7ncccc7c6)CC5)n4n3)cc2)cn1 [Example 98, N,N-Dimethyl-5-{4-[7-(1-quinolin-6-ylcyclopropyl)imidazo[1,2-b][1,2,4]triazin-2-yl]phenyl}pyridine-2-carboxamide]
c1cnc2ccc(C3(c4cnc5ncc(-c6ccc(-n7ccnc7)cc6)nn45)CC3)cc2c1 [Example 99, 6-(1-{2-[4-(1H-Imidazol-1-yl)phenyl]imidazo[1,2-b][1,2,4]triazin-7-yl}cyclopropyl)-quinoline]
O=C(N[C@H]1CC[C@H](O)CC1)c1ccc(-c2cnc3ncc(C4(c5ccc6ncccc6c5)CC4)n3n2)cc1F [Example 100, 2-Fluoro-N-(trans-4-hydroxycyclohexyl)-4-[7-(1-quinolin-6-ylcyclopropyl)imidazo[1,2-b][1,2,4]triazin-2-yl]benzamide]
O=C(NC1CC1)c1ccc(-c2cnc3ncc(C4(c5ccc6ncccc6c5)CC4)n3n2)cc1F [Example 101, N-Cyclopropyl-2-fluoro-4-[7-(1-quinolin-6-ylcyclopropyl)imidazo[1,2-b][1,2,4]triazin-2-yl]benzamide]
CNC(=O)c1ccc(-c2cnc3ncc(C4(c5ccc6ncccc6c5)CC4)n3n2)cc1F [Example 102, 2-Fluoro-N-methyl-4-[7-(1-quinolin-6-ylcyclopropyl)imidazo[1,2-b][1,2,4]triazin-2-yl]benzamide]
COCC1(NC(=O)c2ccc(-c3cnc4ncc(C5(c6ccc7ncccc7c6)CC5)n4n3)cc2F)CC1 [Example 103, 2-Fluoro-N-[1-(methoxymethyl)cyclopropyl]-4-[7-(1-quinolin-6-ylcyclopropyl)imidazo[1,2-b][1,2,4]triazin-2-yl]benzamide]
NC(=O)c1ccc(-c2cnc3ncc(C4(c5ccc6ncccc6c5)CC4)n3n2)cc1F [Example 104, 2-Fluoro-4-(7-(1-(quinolin-6-yl)cyclopropyl)imidazo[1,2-b][1,2,4]triazin-2-yl)benzamide]
O=C(NCC1CCCO1)c1ccc(-c2cnc3ncc(C4(c5ccc6ncccc6c5)CC4)n3n2)cc1 (stereo not shown) [Example 105, 4-[7-(1-Quinolin-6-ylcyclopropyl)imidazo[1,2-b][1,2,4]triazin-2-yl]-N-(tetrahydrofuran-2-ylmethyl)benzamide]
O=C(NCc1ccccn1)c1ccc(-c2cnc3ncc(C4(c5ccc6ncccc6c5)CC4)n3n2)cc1 [Example 106, N-(Pyridin-2-ylmethyl)-4-[7-(1-quinolin-6-ylcyclopropyl)imidazo[1,2-b][1,2,4]triazin-2-yl]benzamide]
O=C(NC1CC1)c1ccc(-c2cnc3ncc(C4(c5ccc6ncccc6c5)CC4)n3n2)cc1 [Example 107]
O=C(NC1CCC1)c1ccc(-c2cnc3ncc(C4(c5ccc6ncccc6c5)CC4)n3n2)cc1 [Example 108, N-Cyclobutyl-4-[7-(1-quinolin-6-ylcyclopropyl)imidazo[1,2-b][1,2,4]triazin-2-yl]benzamide]
O=C(NC1(c2ccccn2)CC1)c1ccc(-c2cnc3ncc(C4(c5ccc6ncccc6c5)CC4)n3n2)cc1 [Example 109, N-(1-Pyridin-2-ylcyclopropyl)-4-[7-(1-quinolin-6-ylcyclopropyl)imidazo[1,2-b][1,2,4]triazin-2-yl]benzamide]
CC(C)(CO)NC(=O)c1ccc(-c2cnc3ncc(C4(c5ccc6ncccc6c5)CC4)n3n2)cc1 [Example 110, N-(2-Hydroxy-1,1-dimethylethyl)-4-[7-(1-quinolin-6-ylcyclopropyl)imidazo[1,2-b][1,2,4]triazin-2-yl]benzamide]
O=C(N[C@H](CO)Cc1ccccc1)c1ccc(-c2cnc3ncc(C4(c5ccc6ncccc6c5)CC4)n3n2)cc1 [Example 111, N-[(1S)-1-Benzyl-2-hydroxyethyl]-4-[7-(1-quinolin-6-ylcyclopropyl)imidazo[1,2-b][1,2,4]triazin-2-yl]benzamide]
O=C(c1ccc(-c2cnc3ncc(C4(c5ccc6ncccc6c5)CC4)n3n2)cc1)N1CC[C@@H](O)C1 [Example 112, (3R)-1-{4-[7-(1-quinolin-6-ylcyclopropyl)imidazo[1,2-b][1,2,4]triazin-2-yl]benzoyl}pyrrolidin-3-ol]
O=C(NC1CCOCC1)c1ccc(-c2cnc3ncc(C4(c5ccc6ncccc6c5)CC4)n3n2)cc1 [Example 113, 4-(7-(1-(Quinolin-6-yl)cyclopropyl)imidazo[1,2-b][1,2,4]triazin-2-yl)-N-(tetrahydro-2H-pyran-4-yl)benzamide]
CN(C(=O)c1ccc(-c2cnc3ncc(C4(c5ccc6ncccc6c5)CC4)n3n2)cc1)C1CC1 [Example 114, N-Cyclopropyl-N-methyl-4-[7-(1-quinolin-6-ylcyclopropyl)imidazo[1,2-b][1,2,4]triazin-2-yl]benzamide]
COCC1(NC(=O)c2ccc(-c3cnc4ncc(C5(c6ccc7ncccc7c6)CC5)n4n3)cc2)CC1 [Example 115, N-[1-(Methoxymethyl)cyclopropyl]-4-[7-(1-quinolin-6-ylcyclopropyl)imidazo[1,2-b][1,2,4]triazin-2-yl]benzamide]
COCC1(NC(=O)c2ccc(-c3cnc4ncc(C5(c6ccc7ncccc7c6)CC5)n4n3)cc2)CCC1 [Example 116, N-[1-(Methoxymethyl)cyclobutyl]-4-[7-(1-quinolin-6-ylcyclopropyl)imidazo[1,2-b][1,2,4]triazin-2-yl]benzamide]
COC[C@@H](NC(=O)c1ccc(-c2cnc3ncc(C4(c5ccc6ncccc6c5)CC4)n3n2)cc1)C(C)C [Example 117]
COCC1(NC(=O)c2ccc(-c3cnc4ncc(C5(c6ccc7ncccc7c6)CC5)n4n3)cc2)CCOCC1 [Example 118]
O=C(Nc1nccs1)c1ccc(-c2cnc3ncc(C4(c5ccc6ncccc6c5)CC4)n3n2)cc1 [Example 119, 4-[7-(1-Quinolin-6-ylcyclopropyl)imidazo[1,2-b][1,2,4]triazin-2-yl]-N-1,3-thiazol-2-ylbenzamide]
C[C@H](COC(=O)N(C)C)NC(=O)c1ccc(-c2cnc3ncc(C4(c5ccc6ncccc6c5)CC4)n3n2)cc1 [Example 121]
CC(c1ccc2ncccc2c1)c1cnc2ncc(-c3ccc(C(=O)N[C@@H](C(=O)N(C)C)C(C)C)cc3)nn12 (stereo partly drawn) [Example 122, N-{(1R)-1-[(Dimethylamino)carbonyl]-2-methylpropyl}-4-[7-(1-quinolin-6-ylethyl)imidazo[1,2-b][1,2,4]triazin-2-yl]benzamide]
O=C(NC1CC1)c1ccc(-c2cnc3ncc(Cc4ccc5ncccc5c4)n3n2)cc1F [Example 123, N-Cyclopropyl-2-fluoro-4-[7-(quinolin-6-ylmethyl)imidazo[1,2-b][1,2,4]triazin-2-yl]benzamide]
COCC1(NC(=O)c2ccc(-c3cnc4ncc(Cc5ccc6ncccc6c5)n4n3)cc2F)CC1 [Example 124, 2-Fluoro-N-[1-(methoxymethyl)cyclopropyl]-4-[7-(quinolin-6-ylmethyl)imidazo[1,2-b][1,2,4]triazin-2-yl]benzamide]
